# Experimental data reported in patent US11878973B2, “Bicyclic compounds and their uses” (NOVARTIS AG, priority 2021, dated 2024).
# What was measured:
# WRN helicase = WRN helicase (Homo sapiens (Human), UniProt Q14191); assay: In vitro enzymatic activity assay on WRN helicase (DNA dependent ATPase assay, ADP-Glo); format: biochemical; details: geometric means of at least 2 determinations; read-out: WRN ATPase Activity (IC50)
# Procedure, shortened: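 DNA-dependent ATPase activity was measured by ADP-Glo luminescent ADP detection after a 30-min room-temperature reaction. The reaction contained 10 nM WRN (residues N517-P1238), 0.2 nM FLAP26 and 300 µM ATP at pH 7.5 with 2 mM MgCl2. Compounds were tested as 10-point half-log series in duplicate; IC50 values are geometric means from at least two independent experiments.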
# SW48 cells = assay: Proliferation assay SW48 (CellTiterGlo, 96 hours); details: Homo sapiens, SW48, read-out: Proliferation Assay SW48 (GI50)
# DLD1-WRN-KO cells = assay: Proliferation assay DLD1-WRN-KO (CellTiterGlo, 96 hours; off-target effects); details: Homo sapiens, read-out: Proliferation Assay DLD1-WRN-KO (GI50)
# WRN helicase, sequence (Q14191 517-1238): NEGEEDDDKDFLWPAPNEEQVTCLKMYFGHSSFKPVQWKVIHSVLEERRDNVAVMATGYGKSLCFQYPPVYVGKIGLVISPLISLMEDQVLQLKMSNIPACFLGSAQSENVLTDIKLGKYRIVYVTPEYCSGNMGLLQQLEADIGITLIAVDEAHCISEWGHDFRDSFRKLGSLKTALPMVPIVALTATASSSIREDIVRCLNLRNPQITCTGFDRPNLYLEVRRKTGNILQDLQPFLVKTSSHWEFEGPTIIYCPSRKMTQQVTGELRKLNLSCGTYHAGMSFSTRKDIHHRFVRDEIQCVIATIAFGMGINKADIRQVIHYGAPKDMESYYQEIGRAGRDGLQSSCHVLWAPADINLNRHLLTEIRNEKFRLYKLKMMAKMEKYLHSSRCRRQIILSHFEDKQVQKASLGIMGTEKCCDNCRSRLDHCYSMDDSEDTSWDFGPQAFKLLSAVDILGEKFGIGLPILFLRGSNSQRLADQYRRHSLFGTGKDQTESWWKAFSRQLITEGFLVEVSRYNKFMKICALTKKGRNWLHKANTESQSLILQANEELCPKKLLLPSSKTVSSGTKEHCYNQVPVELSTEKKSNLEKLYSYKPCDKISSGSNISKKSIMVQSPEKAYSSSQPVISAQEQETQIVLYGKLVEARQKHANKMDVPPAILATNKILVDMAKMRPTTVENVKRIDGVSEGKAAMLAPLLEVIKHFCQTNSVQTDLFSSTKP
IC50 (WRN helicase),GI50 (SW48 cells),GI50 (DLD1-WRN-KO cells),Structure (SMILES)
210 nM,380 nM,> 10000 nM,"CCc1c(N2CCN(C(=O)c3ncccc3O)CC2)c(=O)n2nc(-c3ccc(C)nc3)nc2n1CC(=O)Nc1ccc(C(F)(F)F)cc1C [Example 77, 2-(5-ethyl-6-(4-(3-hydroxypicolinoyl)piperazin-1-yl)-2-(6-methylpyridin-3-yl)-7-oxo-[1,2,4]triazolo[1,5-a]pyrimidin-4(7H)-yl)-N-(2-methyl-4-(trifluoromethyl)phenyl)acetamide]"
20 nM,30 nM,> 10000 nM,"CCc1c(N2CCN(C(=O)c3nccc(F)c3O)CC2)c(=O)n2nc(C3=CCOCC3)nc2n1CC(=O)Nc1ccc(C(F)(F)F)cc1Cl [Example 40, N-(2-chloro-4-(trifluoromethyl)phenyl)-2-(2-(3,6-dihydro-2H-pyran-4-yl)-5-ethyl-6-(4-(4-fluoro-3-hydroxypicolinoyl)piperazin-1-yl)-7-oxo-[1,2,4]triazolo[1,5-a]pyrimidin-4(7H)-yl)acetamide]"
110 nM,80 nM,> 10000 nM,"CCc1c(N2CCN(C(=O)c3ncncc3O)CC2)c(=O)n2nc(C3=CCOCC3)nc2n1CC(=O)Nc1ccc(C(F)(F)F)cc1Cl [Example 44, N-(2-chloro-4-(trifluoromethyl)phenyl)-2-(2-(3,6-dihydro-2H-pyran-4-yl)-5-ethyl-6-(4-(5-hydroxypyrimidine-4-carbonyl)piperazin-1-yl)-7-oxo-[1,2,4]triazolo[1,5-a]pyrimidin-4(7H)-yl)acetamide]"
80 nM,90 nM,> 10000 nM,"CCc1c(N2CCN(C(=O)c3ncnc(C)c3O)CC2)c(=O)n2nc(C3=CC[C@H](F)CO3)nc2n1CC(=O)Nc1ccc(C(F)(F)F)cc1Cl [Example 127, (S)—N-(2-chloro-4-(trifluoromethyl)phenyl)-2-(5-ethyl-2-(3-fluoro-3,4-dihydro-2H-pyran-6-yl)-6-(4-(5-hydroxy-6-methylpyrimidine-4-carbonyl)piperazin-1-yl)-7-oxo-[1,2,4]triazolo[1,5-a]pyrimidin-4(7H)-yl)acetamide]"
130 nM,550 nM,> 10000 nM,"CCc1c(N2CCN(C(=O)c3ncccc3O)CC2)c(=O)n2nc(N3CCOCC3)nc2n1CC(=O)Nc1cc(C(F)(F)F)c(Cl)cc1C [Example 12, N-(4-chloro-2-methyl-5-(trifluoromethyl)phenyl)-2-(5-ethyl-6-(4-(3-hydroxypicolinoyl)piperazin-1-yl)-2-morpholino-7-oxo-[1,2,4]triazolo[1,5-a]pyrimidin-4(7H)-yl)acetamide]"
80 nM,190 nM,> 10000 nM,"CCc1c(N2CCN(C(=O)c3ncccc3O)CC2)c(=O)n2nc(-c3cccnc3)nc2n1CC(=O)Nc1ccc(C(F)(F)F)cc1C [Example 76, 2-(5-ethyl-6-(4-(3-hydroxypicolinoyl)piperazin-1-yl)-7-oxo-2-(pyridin-3-yl)-[1,2,4]triazolo[1,5-a]pyrimidin-4(7H)-yl)-N-(2-methyl-4-(trifluoromethyl)phenyl)acetamide]"
90 nM,50 nM,> 10000 nM,"CCc1c(N2CCN(C(=O)c3ncccc3O)CC2)c(=O)n2nc(C3=CCCCO3)nc2n1CC(=O)Nc1ccc(C(F)(F)F)nc1Cl [Example 29, N-(2-chloro-6-(trifluoromethyl)pyridin-3-yl)-2-(2-(3,4-dihydro-2H-pyran-6-yl)-5-ethyl-6-(4-(3-hydroxypicolinoyl)piperazin-1-yl)-7-oxo-[1,2,4]triazolo[1,5-a]pyrimidin-4(7H)-yl)acetamide]"
140 nM,170 nM,> 10000 nM,"CCc1c(N2CCN(C(=O)c3ncnc(C)c3O)CC2)c(=O)n2nc(C3=CCOCC3)nc2n1CC(=O)Nc1ccc(C(F)(F)F)nc1Cl [Example 47, N-(2-chloro-6-(trifluoromethyl)pyridin-3-yl)-2-(2-(3,6-dihydro-2H-pyran-4-yl)-5-ethyl-6-(4-(5-hydroxy-6-methylpyrimidine-4-carbonyl)piperazin-1-yl)-7-oxo-[1,2,4]triazolo[1,5-a]pyrimidin-4(7H)-yl)acetamide]"
